Measured values reported in patent publication US20070185094A1, “Novel 3-substitued-1,4-benzodiazepines” (ASTON UNIVERSITY, priority 2003, published 2007).
Read-outs that look alike come from different tables or passages of the source.

How the values were obtained:
CCKB receptor = target: T1, CCKB receptor (Cavia porcellus, UniProt H0VZC5); assay: 125I-CCK-8 receptor binding assay, CCKB (guinea pig cerebral cortex)
T1 sequence (H0VZC5 1-426): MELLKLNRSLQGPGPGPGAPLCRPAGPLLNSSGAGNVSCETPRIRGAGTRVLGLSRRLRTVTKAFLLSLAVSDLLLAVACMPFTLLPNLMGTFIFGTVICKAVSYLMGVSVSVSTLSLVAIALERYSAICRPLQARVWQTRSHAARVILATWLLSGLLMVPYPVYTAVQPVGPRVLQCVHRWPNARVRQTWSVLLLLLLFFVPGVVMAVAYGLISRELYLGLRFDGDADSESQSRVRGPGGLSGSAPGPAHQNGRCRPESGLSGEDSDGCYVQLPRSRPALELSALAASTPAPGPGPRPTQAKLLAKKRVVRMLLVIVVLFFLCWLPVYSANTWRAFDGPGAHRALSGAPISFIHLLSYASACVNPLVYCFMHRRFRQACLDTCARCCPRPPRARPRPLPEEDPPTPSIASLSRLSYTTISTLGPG
Experimental: CCKA and CCKB receptor binding assays were performed, by using guinea pig cerebral cortex (CCKB) or rat pancreas (CCKA). […]. J. Pharmacol., 269, 249-254]. Pancreatic membranes were prepared in a similar way but by Charpentier et al [(1988), Cyclic cholecystokinin analogues with high selectivity for central receptors., Proc Natl Acad Sci USA, 85, 1968-1972]. The […] CCK binding assay: Tissues were homogenised in ice cold sucrose (0.32 M, 25 ml) for 15 strokes at 500 rpm and centrifuged at 13000 rpm for 10 mins. The supernatant was re-centrifuged at 13000 rpm for 20 mins. The resulting pellet was re-dispersed to the required volume of buffer at 500 rpm and stored in aliquots at […].
(§1) The samples were incubated {with membranes (0.1 mg/ml)} in 20 mM Hepes, 1 mM EGTA, 5 mM MgCl2, 150 mm NaCl, 0.25 mg/ml bacitracin at pH 6.5 for 2 hrs at RT and then […] by centrifugation at 1100 rpm for 5 minutes. The membrane pellets were washed twice with water and the bound radioactivity was measured in a Packard Cobra Auto-gamma counter (B5005). All binding assays were carried out with L-363, 260 as an internal non-specific standard. Controls (no compound) were also added. All samples were made in duplicate and repeated twice. All compounds were initially screened for percentage inhibition at 20 μM.

CCKA receptor = target: T2, CCKA receptor (Rattus norvegicus, UniProt P30551); assay: 125I-CCK-8 receptor binding assay, CCKA (rat pancreas); details: for Ratio CCKB:CCKA: ratio of IC50 values
T2 construct: Pancreatic membranes were prepared in a similar way; from tissue; host or cells: rat pancreas membranes
T2 sequence (P30551 1-444): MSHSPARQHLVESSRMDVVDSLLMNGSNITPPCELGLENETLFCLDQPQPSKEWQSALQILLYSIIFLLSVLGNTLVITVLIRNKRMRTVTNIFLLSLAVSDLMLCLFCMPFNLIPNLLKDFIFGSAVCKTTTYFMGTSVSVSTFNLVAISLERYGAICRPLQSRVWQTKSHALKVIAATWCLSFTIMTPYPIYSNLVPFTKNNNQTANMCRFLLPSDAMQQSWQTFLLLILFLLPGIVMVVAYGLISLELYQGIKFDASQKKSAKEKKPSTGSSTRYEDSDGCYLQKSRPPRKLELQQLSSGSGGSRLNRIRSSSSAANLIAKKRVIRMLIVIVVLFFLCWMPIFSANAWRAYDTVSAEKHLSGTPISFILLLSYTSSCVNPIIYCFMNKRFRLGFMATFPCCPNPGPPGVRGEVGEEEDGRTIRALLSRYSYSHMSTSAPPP
Experimental: CCKA and CCKB receptor binding assays were performed, by using guinea pig cerebral cortex (CCKB) or rat pancreas (CCKA). Male guinea pig brain tissues were prepared according to the modified method described by Saita et al [(1994), Characterization of YM022: its CCKB/gastrin receptor binding profile and antagonism to CCK-8-induced Ca2+ mobilization., Eur. J. Pharmacol., 269, 249-254]. Pancreatic membranes were prepared in a similar way but by Charpentier et al [(1988), Cyclic cholecystokinin analogues with high selectivity for central receptors., Proc Natl Acad Sci USA, 85, 1968-1972]. The […] CCK binding assay: Tissues were homogenised in ice cold sucrose (0.32 M, 25 ml) for 15 strokes at 500 rpm and centrifuged at 13000 rpm for 10 mins. The supernatant was re-centrifuged at 13000 rpm for 20 mins. The resulting pellet was re-dispersed to the required volume of buffer at 500 rpm and stored in aliquots at […].
as §1

[1] = IC50 CCKB, Table 4, alkylated oxazepam derivatives

## Cc1cc(C)cc(NC2N=C(c3ccccc3)c3cc(Cl)ccc3NC2=O)c1 (centres unmarked) [Example 50]
CCKB receptor; IC50 CCKB, Table 3
  IC50: 2900 nM
CCKA receptor; Table 3
  IC50: 9 nM
  Ratio CCKB:CCKA: 322
CCKA receptor; dimethylanilines with at least one meta group
  CCKA binding activity in words: equally active

## CCCCc1ccc(NC2N=C(c3ccccc3)c3cc(Cl)ccc3NC2=O)cc1 (centres unmarked) [Example 3]
CCKB receptor; CCKB IC50, Table 1
  IC50: 580 nM

## O=C1Nc2ccc(Cl)cc2C(c2ccccc2)=NC1NCc1ccccc1 (centres unmarked) [Example 23, 3-(benzylamino)-7-chloro-5-phenyl-1,3-dihydro-2H-1,4-benzodiazepin-2-one]
CCKB receptor; IC50 CCKB, Table 2
  IC50: 6000 nM

## Cc1ccc(NC2N=C(c3ccccc3)c3cc(Cl)ccc3NC2=O)cc1C (centres unmarked) [Example 31, 7-chloro-3-(3,4-dimethylanilino)-5-phenyl-1,3-dihydro-2H-1,4-benzodiazepin-2-one]
CCKB receptor; IC50 CCKB
  IC50: 920 nM

## CCOC(=O)N1C(=O)C(O)N=C(c2ccccc2)c2cc(Cl)ccc21 (centres unmarked) [Example 61, 7-chloro-3-hydroxy-5-phenyl-1-ethoxycarbonyl-1,3-dihydro-2H-1,4-benzodiazepin-2-one]
CCKB receptor; [1]
  IC50: 690 nM

## CC(C)N(C1CCCCC1)C1N=C(c2ccccc2)c2cc(Cl)ccc2NC1=O (single isomer, unassigned) [Example 8]
CCKB receptor; IC50 CCKB
  IC50: 190 nM

## CCN(c1cccc(C)c1)C1N=C(c2ccccc2)c2cc(Cl)ccc2NC1=O (centres unmarked) [Example 56]
CCKB receptor; IC50 CCKB, Table 3
  IC50: 650 nM
CCKA receptor; Table 3
  IC50: 330 nM
  Ratio CCKB:CCKA: 2

## COc1ccc(NC2N=C(c3ccccc3)c3cc(Cl)ccc3NC2=O)cc1 (centres unmarked) [Example 43, 7-chloro-3-(4-methoxyanilino)-5-phenyl-1,3-dihydro-2H-1,4-benzodiazepin-2-one]
CCKB receptor; IC50 CCKB, Table 3
  IC50: > 10000 nM
CCKA receptor; Table 3
  IC50: ≥ 20000 nM

## CCN(C1CCCCC1)C1N=C(c2ccccc2)c2cc(Cl)ccc2NC1=O (centres unmarked) [Example 34, 7-chloro-3-(ethylcyclohexylamino)-5-phenyl-1,3-dihydro-2H-1,4-benzodiazepin-2-one]
CCKB receptor; IC50 CCKB, Table 2
  IC50: > 15000 nM

## C=CCN1C(=O)C(O)N=C(c2ccccc2)c2cc(Cl)ccc21 (centres unmarked) [Example 60, 7-chloro-3-hydroxy-5-phenyl-1-allyl-1,3-dihydro-2H-1,4-benzodiazepin-2-one]
CCKB receptor; [1]
  IC50: 980 nM

## O=C1Nc2ccc(Cl)cc2C(c2ccccc2)=NC1Nc1ccccc1 (centres unmarked) [Example 22, 3-anilino-7-chloro-5-phenyl-1,3-dihydro-2H-1,4-benzodiazepin-2-one]
CCKB receptor; IC50 CCKB, Table 2
  IC50: 4100 nM

## O=C1Nc2ccc(Cl)cc2C(c2ccccc2)=NC1N1CCCCC1 (centres unmarked) [Example 32, 7-chloro-3-(piperidin-1-yl)-5-phenyl-1,3-dihydro-2H-1,4-benzodiazepin-2-one]
CCKB receptor; IC50 CCKB, Table 2
  IC50: > 15000 nM

## O=C1C(O)N=C(c2ccccc2)c2cc(Cl)ccc2N1Cc1ccccc1 (centres unmarked) [Example 59, 7-chloro-3-hydroxy-5-phenyl-1-benzyl-1,3-dihydro-2H-1,4-benzodiazepin-2-one]
CCKB receptor; [1]
  IC50: 760 nM

## CN(Cc1ccccc1)C1N=C(c2ccccc2)c2cc(Cl)ccc2NC1=O (single isomer, unassigned) [Example 6]
CCKB receptor; CCKB IC50, Table 1
  IC50: 860 nM

## Cc1ccc(NC2N=C(c3ccccc3)c3cc(Cl)ccc3NC2=O)cc1C (centres unmarked) [Example 4]
CCKB receptor; CCKB IC50, Table 1
  IC50: 660 nM

## Cc1ccc(NC2N=C(c3ccccc3)c3cc(Cl)ccc3NC2=O)cc1 (centres unmarked) [Example 46]
CCKB receptor; IC50 CCKB, Table 3
  IC50: 4600 nM
CCKA receptor; Table 3
  IC50: 290 nM
  Ratio CCKB:CCKA: 16

## O=C1Nc2ccc(Cl)cc2C(c2ccccc2)=NC1Nc1cccc([N+](=O)[O-])c1 (centres unmarked) [Example 36]
CCKB receptor; IC50 CCKB, Table 3
  IC50: 6000 nM
CCKA receptor
  IC50: 11 nM
CCKA receptor; Table 3
  Ratio CCKB:CCKA: 545

## CN(c1ccccc1)C1N=C(c2ccccc2)c2cc(Cl)ccc2NC1=O (centres unmarked) [Example 54]
CCKB receptor; IC50 CCKB, Table 3
  IC50: 150 nM
CCKA receptor
  IC50: 14 nM
CCKA receptor; Table 3
  Ratio CCKB:CCKA: 11

## O=C1Nc2ccc(Cl)cc2C(c2ccccc2)=NC1N1CCOCC1 (centres unmarked) [Example 11]
CCKB receptor; CCKB IC50, Table 1
  IC50: 2700 nM

## O=C1Nc2ccc(Cl)cc2C(c2ccccc2)=NC1Nc1ccccc1 (centres unmarked) [Example 53]
CCKB receptor; IC50 CCKB, Table 3
  IC50: 4100 nM
CCKA receptor; Table 3
  IC50: 240 nM
  Ratio CCKB:CCKA: 17

## O=C(CN1C(=O)C(O)N=C(c2ccccc2)c2cc(Cl)ccc21)c1ccccc1 (centres unmarked) [Example 62, 7-chloro-3-hydroxy-5-phenyl-1-phenacyl-1,3-dihydro-2H-1,4-benzodiazepin-2-one]
CCKB receptor; [1]
  IC50: 200 nM

## CC(C)N(C1CCCCC1)C1N=C(c2ccccc2)c2cc(Cl)ccc2NC1=O (centres unmarked) [Example 33, 7-chloro-3-(isopropylcyclohexylamino)-5-phenyl-1,3-dihydro-2H-1,4-benzodiazepin-2-one]
CCKB receptor; IC50 CCKB, Table 2
  IC50: > 15000 nM

## CC(=O)c1ccccc1NC1N=C(c2ccccc2)c2cc(Cl)ccc2NC1=O (centres unmarked) [Example 18, 3-(2 acetylanilino)-7-chloro-5-phenyl-1,3-dihydro-2H-1,4-benzodiazepin-2-one]
CCKB receptor; IC50 CCKB, Table 2
  IC50: 8400 nM

## COc1cc(NC2N=C(c3ccccc3)c3cc(Cl)ccc3NC2=O)cc(OC)c1C(C)=O (centres unmarked) [Example 21, 3-(4-acetyl-3,5-dimethoxyanilino)-7-chloro-5-phenyl-1,3-dihydro-2H-1,4-benzodiazepin-2-one]
CCKB receptor; Table 2, read-out: IC50 CCKB
  IC50: 5300 nM

## CN(c1ccccc1)C1N=C(c2ccccc2)c2cc(Cl)ccc2NC1=O (centres unmarked) [Example 24, 7-chloro-3-(methylanilino)-5-phenyl-1,3-dihydro-2H-1,4-benzodiazepin-2-one]
CCKB receptor; IC50 CCKB
  IC50: 150 nM

## CN(Cc1ccccc1)C1N=C(c2ccccc2)c2cc(Cl)ccc2NC1=O (centres unmarked) [Example 25]
CCKB receptor; IC50 CCKB, Table 2
  IC50: 2900 nM

## Cc1c(NC2N=C(c3ccccc3)c3cc(Cl)ccc3NC2=O)c(=O)n(-c2ccccc2)n1C (centres unmarked) [Example 13]
CCKB receptor; Table 2, read-out: IC50 CCKB
  IC50: 9300 nM

## C#CCN1C(=O)C(O)N=C(c2ccccc2)c2cc(Cl)ccc21 (centres unmarked) [Example 58, 7-chloro-3-hydroxy-5-phenyl-1-prop-2-ynyl-1,3-dihydro-2H-1,4-benzodiazepin-2-one]
CCKB receptor; [1]
  IC50: 960 nM

## O=C1Nc2ccc(Cl)cc2C(c2ccccc2)=NC1NC1CCCCC1 (centres unmarked) [Example 30, 7-chloro-3-(cyclohexylamino)-5-phenyl-1,3-dihydro-2H-1,4-benzodiazepin-2-one]
CCKB receptor; IC50 CCKB, Table 2
  IC50: 10100 nM

## CCCNC1N=C(c2ccccc2)c2cc(Cl)ccc2NC1=O (centres unmarked) [Example 28, 3-(propylamino)-7-chloro-5-phenyl-1,3-dihydro-2H-1,4-benzodiazepin-2-one]
CCKB receptor; IC50 CCKB, Table 2
  IC50: 8900 nM

## COc1cccc(NC2N=C(c3ccccc3)c3cc(Cl)ccc3NC2=O)c1 (centres unmarked) [Example 42]
CCKA receptor
  IC50: 10 nM
CCKA receptor; Table 3
  Ratio CCKB:CCKA: 450

## COc1cccc(NC2N=C(c3ccccc3)c3cc(Cl)ccc3NC2=O)c1 (centres unmarked) [Example 19, 7-chloro-3-(3-methoxyanilino)-5-phenyl-1,3-dihydro-2H-1,4-benzodiazepin-2-one]
CCKB receptor; IC50 CCKB, Table 2
  IC50: 1500 nM

## O=C1Nc2ccc(Cl)cc2C(c2ccccc2)=NC1Nc1cccc(Cl)c1 (single isomer, unassigned) [Example 2]
CCKB receptor; CCKB IC50, Table 1
  IC50: 320 nM

## O=C1Nc2ccc(Cl)cc2C(c2ccccc2)=NC1N1CCCc2ccccc21 (centres unmarked) [Example 17, 7-chloro-3-[3,4-dihydroquinolin-1(2H)-yl]-5-phenyl-1,3-dihydro-2H-1,4-benzodiazepin-2-one]
CCKB receptor; IC50 CCKB, Table 2
  IC50: 7200 nM

## COc1ccc(NC2N=C(c3ccccc3)c3cc(Cl)ccc3NC2=O)cc1OC (centres unmarked) [Example 20, 7-chloro-3-(3,4-dimethoxyanilino)-5-phenyl-1,3-dihydro-2H-1,4-benzodiazepin-2-one]
CCKB receptor; IC50 CCKB, Table 2
  IC50: 1200 nM
